Data set [1] addresses T1, serotonin transporters (SERT) (Rattus norvegicus, UniProt P31652).
T1 construct: expressed in transfected cells; host or cells: LLC-PK1 (LLC-SERT)
In words: In vitro binding assay, LLC-SERT membrane homogenates, [^125I]IDAM. The following applies: 0.2 nM [^125I]IDAM, LLC-SERT membranes; read-out: Ki (SERT binding affinity) (converted). As to the method:
The membrane homogenates of serotonin transporters (LLC-SERT, which were expressed in a common parental cell line LLC-PK1) were prepared and used for the binding assays. Competitive binding assays were performed in a final volume of 0.25 mL. […] Nonspecific binding was defined with 10 μM citalopram. Incubation was carried out for 60 min at room temperature and the bound ligand was collected on glass fiber filters presoaked with 1% polyethylenimine (SIGMA, St. Louis, MO) and counted in a gamma counter (Wizard^2, Perkin Elmer).

The nature of data set [2]: Biodistribution in rats of ^18F-III-3 (^18F-FPBM-D12). The following applies: for Biodistribution Blood / Biodistribution Bone / Biodistribution Brain / Biodistribution Heart / Biodistribution Kidney / Biodistribution Liver / Biodistribution Lung / Biodistribution Muscle / Biodistribution Pancreas / Biodistribution Skin / Biodistribution Spleen: normal rats, i.v. In kind it is in vivo, rat. As to the method:
(§1) Three rats per group were used for each biodistribution study. While under isoflurane anesthesia, 0.2 mL of a saline solution containing 20 μCi of radioactive tracer was injected into the femoral vein. The rats were sacrificed at the time indicated by cardiac excision while under isoflurane anesthesia. Organs of interest were removed and weighed, and the radioactivity was counted. The percent dose per organ was calculated by comparing the tissue counts to counts of 1% of the initial dose (100 times diluted aliquots of the injected material) measured at the same time. Regional brain distribution in rats was measured after an iv injection of the radioactive tracer. Samples from different brain regions [cortex, striatum, hippocampus, cerebellum and hypothalamus] were dissected, weighed and counted. The percentage dose/g of each sample was calculated by comparing sample counts with the counts of the diluted initial dose described above. The ratio was calculated by dividing the percentage dose/g of each region by that of the cerebellum. The cerebellum was used as the reference region for calculating the ratio of target to non-target binding, because only a trace amount of SERT is present in the cerebellum.

The target in data set [3] is T2, SERT (Rattus norvegicus, UniProt P31652).
T2 construct: host or cells: live rats, dissected brain regions
T2 sequence (P31652 whole entry): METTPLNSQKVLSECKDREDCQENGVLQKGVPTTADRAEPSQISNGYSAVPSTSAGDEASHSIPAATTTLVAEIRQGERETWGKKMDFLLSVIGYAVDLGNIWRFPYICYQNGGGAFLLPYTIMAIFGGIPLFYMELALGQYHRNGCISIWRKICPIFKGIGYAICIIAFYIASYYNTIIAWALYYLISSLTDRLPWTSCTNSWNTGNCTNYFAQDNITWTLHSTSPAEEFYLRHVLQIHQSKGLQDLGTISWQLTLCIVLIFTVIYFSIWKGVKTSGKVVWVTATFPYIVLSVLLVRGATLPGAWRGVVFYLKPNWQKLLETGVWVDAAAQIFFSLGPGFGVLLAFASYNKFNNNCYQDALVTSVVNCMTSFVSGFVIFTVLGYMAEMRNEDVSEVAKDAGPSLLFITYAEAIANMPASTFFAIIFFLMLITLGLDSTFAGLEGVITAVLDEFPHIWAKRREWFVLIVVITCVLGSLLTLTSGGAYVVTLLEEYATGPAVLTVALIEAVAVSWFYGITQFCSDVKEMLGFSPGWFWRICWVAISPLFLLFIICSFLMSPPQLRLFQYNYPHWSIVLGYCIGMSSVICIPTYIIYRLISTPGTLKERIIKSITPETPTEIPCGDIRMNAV
Nature of the data set: Region to cerebellum ratio in rats, ^18F-III-3. In kind it is in vivo. The conditions noted are these: normal rats, i.v. As for the experimental part:
as §1

T1 sequence (P31652 whole entry): as above

As for `[2H]C([2H])([2H])N(Cc1cc(OC([2H])([2H])C([2H])([2H])C([2H])([2H])F)ccc1Sc1ccccc1N)C([2H])([2H])[2H]` (single isomer, unassigned) [III-3 (FPBM- D12)], the Ki in data set [1] is 86 ± 29 pM.

Turning to `CN(C)Cc1cc(O)ccc1Sc1ccc(Cl)cc1N` [III-4-17], in data set [1], the inhibition constant Ki is 30 pM.

`[2H]C([2H])([2H])N(Cc1cc(OC([2H])([2H])C([2H])([2H])C([2H])([2H])[18F])ccc1Sc1ccccc1N)C([2H])([2H])[2H]` [^18F-III-3 (^18F-FPBM-D12)]: in data set [2] (2 min), the “Biodistribution Blood” value came out at 0.25 ± 0.04 % Dose/g, the “Biodistribution Bone” value amounted to 0.35 ± 0.06 % Dose/g, the “Biodistribution Brain” value is listed as 1.09 ± 0.06 % Dose/g and the “Biodistribution Heart” value worked out at 1.19 ± 0.18 % Dose/g. Besides, in data set [2] (2 min), the “Biodistribution Kidney” value is 3.02 ± 0.16 % Dose/g, the “Biodistribution Liver” value is listed as 0.74 ± 0.16 % Dose/g, the “Biodistribution Lung” value turned out to be 9.56 ± 2.29 % Dose/g and the “Biodistribution Muscle” value is 0.14 ± 0.02 % Dose/g. In data set [2] (2 min), the “Biodistribution Pancreas” value is 1.13 ± 0.02 % Dose/g, the “Biodistribution Skin” value came out at 0.22 ± 0.04 % Dose/g and the “Biodistribution Spleen” value is listed as 1.48 ± 0.31 % Dose/g. For the same compound, in data set [2] (30 min), the “Biodistribution Blood” value is given as 0.16 ± 0.03 % Dose/g, the “Biodistribution Bone” value was 0.19 ± 0.01 % Dose/g, the “Biodistribution Brain” value is recorded as 0.81 ± 0.04 % Dose/g and the “Biodistribution Heart” value amounted to 0.18 ± 0.02 % Dose/g. Also, in data set [2] (30 min), the “Biodistribution Kidney” value was found to be 1.79 ± 0.38 % Dose/g, the “Biodistribution Liver” value amounted to 0.30 ± 0.05 % Dose/g, the “Biodistribution Lung” value came to 1.86 ± 0.42 % Dose/g and the “Biodistribution Muscle” value amounted to 0.09 ± 0.02 % Dose/g. Further, in data set [2] (30 min), the “Biodistribution Pancreas” value is 0.27 ± 0.06 % Dose/g, the “Biodistribution Skin” value came to 0.19 ± 0.03 % Dose/g and the “Biodistribution Spleen” value was found to be 0.88 ± 0.05 % Dose/g. For the same compound, in data set [2] (60 min), the “Biodistribution Blood” value is reported as 0.10 ± 0.02 % Dose/g, the “Biodistribution Bone” value came to 0.16 ± 0.02 % Dose/g, the “Biodistribution Brain” value was 0.54 ± 0.05 % Dose/g and the “Biodistribution Heart” value came to 0.09 ± 0.01 % Dose/g. For the same compound, in data set [2] (60 min), the “Biodistribution Kidney” value amounted to 1.29 ± 0.29 % Dose/g, the “Biodistribution Liver” value is 0.22 ± 0.02 % Dose/g, the “Biodistribution Lung” value worked out at 0.85 ± 0.11 % Dose/g and the “Biodistribution Muscle” value is listed as 0.07 ± 0.01 % Dose/g. Further, in data set [2] (60 min), the “Biodistribution Pancreas” value is reported as 0.19 ± 0.02 % Dose/g, the “Biodistribution Skin” value was determined as 0.16 ± 0.01 % Dose/g and the “Biodistribution Spleen” value is 0.46 ± 0.10 % Dose/g. In addition, in data set [2] (120 min), the “Biodistribution Blood” value is listed as 0.06 ± 0.00 % Dose/g, the “Biodistribution Bone” value is given as 0.13 ± 0.01 % Dose/g, the “Biodistribution Brain” value turned out to be 0.31 ± 0.03 % Dose/g and the “Biodistribution Heart” value is recorded as 0.05 ± 0.01 % Dose/g. In data set [2] (120 min), the “Biodistribution Kidney” value is 0.83 ± 0.39 % Dose/g, the “Biodistribution Liver” value amounted to 0.16 ± 0.01 % Dose/g, the “Biodistribution Lung” value was 0.45 ± 0.10 % Dose/g and the “Biodistribution Muscle” value turned out to be 0.03 ± 0.01 % Dose/g. In addition, in data set [2] (120 min), the “Biodistribution Pancreas” value stood at 0.13 ± 0.07 % Dose/g, the “Biodistribution Skin” value was determined as 0.10 ± 0.02 % Dose/g and the “Biodistribution Spleen” value is 0.21 ± 0.04 % Dose/g. Also, in data set [2] (rats, after i.v. injection), the “blood-brain-barrier penetration” value is “penetrated the blood-brain-barrier”. Further, in data set [3] (2 min), the “Region to Cerebellum Ratio: Cerebellum” value was determined as 1.00 ± 0.00, the “Region to Cerebellum Ratio: Cortex” value was 1.44 ± 0.27, the “Region to Cerebellum Ratio: Hippocampus” value is 0.97 ± 0.13 and the “Region to Cerebellum Ratio: Hypothalamus” value was determined as 1.17 ± 0.21. In data set [3] (2 min), the “Region to Cerebellum Ratio: Remainder” value was 1.21 ± 0.13 and the “Region to Cerebellum Ratio: Striatum” value stood at 1.15 ± 0.18. Moreover, in data set [3] (30 min), the “Region to Cerebellum Ratio: Cerebellum” value amounted to 1.00 ± 0.00, the “Region to Cerebellum Ratio: Cortex” value stood at 1.81 ± 0.30, the “Region to Cerebellum Ratio: Hippocampus” value is reported as 2.04 ± 0.27 and the “Region to Cerebellum Ratio: Hypothalamus” value was determined as 2.99 ± 0.46. For the same compound, in data set [3] (30 min), the “Region to Cerebellum Ratio: Remainder” value is on record as 2.42 ± 0.13 and the “Region to Cerebellum Ratio: Striatum” value is given as 2.43 ± 0.38. Also, in data set [3] (60 min), the “Region to Cerebellum Ratio: Cerebellum” value is 1.00 ± 0.00, the “Region to Cerebellum Ratio: Cortex” value is recorded as 2.68 ± 0.35, the “Region to Cerebellum Ratio: Hippocampus” value turned out to be 3.45 ± 0.42 and the “Region to Cerebellum Ratio: Hypothalamus” value was 5.32 ± 0.45. Further, in data set [3] (60 min), the “Region to Cerebellum Ratio: Remainder” value was 3.77 ± 0.43 and the “Region to Cerebellum Ratio: Striatum” value turned out to be 3.96 ± 0.62. Also, in data set [3] (120 min), the “Region to Cerebellum Ratio: Cerebellum” value was 1.00 ± 0.00, the “Region to Cerebellum Ratio: Cortex” value was 2.67 ± 0.50, the “Region to Cerebellum Ratio: Hippocampus” value is on record as 3.85 ± 0.28 and the “Region to Cerebellum Ratio: Hypothalamus” value is 7.55 ± 0.82. Further, in data set [3] (120 min), the “Region to Cerebellum Ratio: Remainder” value was determined as 4.74 ± 0.71 and the “Region to Cerebellum Ratio: Striatum” value came out at 4.69 ± 1.26.

On to `[2H]C([2H])([2H])N(Cc1cc(O)ccc1Sc1ccccc1N)C([2H])([2H])[2H]` [III-2-4], for which, in data set [1], the inhibition constant (Ki) was 2020 ± 540 pM.

For the compound `[2H]C([2H])(F)C([2H])([2H])C([2H])([2H])Oc1ccc(Sc2ccccc2N)c(CN(C)C)c1` (single isomer, unassigned) [III-4-2], the Ki in data set [1] was 140 ± 60 pM.

`CN(C)Cc1cc(O)ccc1Sc1ccc(Br)cc1N` [III-4-18]: the inhibition constant (Ki) in data set [1] was 20 pM.

Regarding `CN(C)Cc1cc(O)ccc1Sc1ccccc1N` [III-1-1], in data set [1], the Ki was 1210 ± 150 pM.

Take `[2H]C([2H])([2H])NCc1cc(OCCCF)ccc1Sc1ccccc1N` [III-6-8]: the inhibitory constant (Ki) in data set [1] was 3050 ± 810 pM.

For the compound `[2H]C([2H])(F)C([2H])([2H])C([2H])([2H])Oc1ccc(Sc2ccc(I)cc2N)c(CN(C)C)c1` [III-4-28], in data set [1], the inhibition constant (Ki) was 8 pM.

In the case of `CN(C)Cc1cc(OCCCF)ccc1Sc1ccccc1N` [III-1 (FPBM), reference compound], the Ki in data set [1] is 52 ± 7 pM.

Turning to `[2H]C([2H])(F)C([2H])([2H])C([2H])([2H])Oc1ccc(Sc2ccc(F)cc2N)c(CN(C)C)c1` [III-4-27], in data set [1], the inhibition constant (Ki) is 24 pM.

The values are drawn from patent publication US12544463B2, “Deuterium substituted positron emission tomography (PET) imaging agents and their pharmacological application” (Five Eleven Pharma Inc., priority 2017, dated 2026).
